In PubChem BioAssay AID1919005 (Molecular Pharmacology Branch, DTP, NCI, 2023):

System: 855422-203-R-J1-PDC complex spheroid growth
Assay: Anticancer human tumor 855422-203-R-J1-PDC patient-derived bladder carcinoma cell line growth inhibition [AhR]
Conditions: for IC50: curve of first compound; for viability, T/C: stronger effect = lower value
Outline: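 Complex tumor spheroids co-cultured with HUVEC and human MSC stroma; AhR antagonists tested in combination with standard-of-care and investigational agents. Top concentration at or near clinical Cmax (else 10 microM), half-log dilutions; growth expressed as percent test/control.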

[1] = second compound 0.1 µM, first compound 0.00316 µM
[2] = second compound 0.1 µM, first compound 0.01 µM
[3] = second compound 0.1 µM, first compound 0.0316 µM
[4] = second compound 0.1 µM, first compound 0.1 µM
[5] = second compound 0.316 µM, first compound 0.00316 µM
[6] = second compound 0.316 µM, first compound 0.01 µM
[7] = second compound 0.316 µM, first compound 0.0316 µM
[8] = second compound 0.316 µM, first compound 0.1 µM
[9] = second compound 1 µM, first compound 0.00316 µM
[10] = second compound 1 µM, first compound 0.01 µM
[11] = second compound 1 µM, first compound 0.0316 µM
[12] = second compound 1 µM, first compound 0.1 µM
[13] = second compound 3.16 µM, first compound 0.00316 µM
[14] = second compound 3.16 µM, first compound 0.01 µM
[15] = second compound 3.16 µM, first compound 0.0316 µM
[16] = second compound 3.16 µM, first compound 0.1 µM
[17] = second compound 10 µM, first compound 0.00316 µM
[18] = second compound 10 µM, first compound 0.01 µM
[19] = second compound 10 µM, first compound 0.0316 µM
[20] = second compound 10 µM, first compound 0.1 µM
[21] = second compound 0.1 µM, first compound 0.316 µM
[22] = second compound 0.1 µM, first compound 1 µM
[23] = second compound 0.1 µM, first compound 3.16 µM
[24] = second compound 0.1 µM, first compound 10 µM
[25] = second compound 0.316 µM, first compound 0.316 µM
[26] = second compound 0.316 µM, first compound 1 µM
[27] = second compound 0.316 µM, first compound 3.16 µM
[28] = second compound 0.316 µM, first compound 10 µM
[29] = second compound 1 µM, first compound 0.316 µM
[30] = second compound 1 µM, first compound 1 µM
[31] = second compound 1 µM, first compound 3.16 µM
[32] = second compound 1 µM, first compound 10 µM
[33] = second compound 3.16 µM, first compound 0.316 µM
[34] = second compound 3.16 µM, first compound 1 µM
[35] = second compound 3.16 µM, first compound 3.16 µM
[36] = second compound 3.16 µM, first compound 10 µM
[37] = second compound 10 µM, first compound 0.316 µM
[38] = second compound 10 µM, first compound 1 µM
[39] = second compound 10 µM, first compound 3.16 µM
[40] = second compound 10 µM, first compound 10 µM
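Note: spheroids exposed to agents for seven days before readout.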
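Throughout, for viability, T/C: percent of DMSO vehicle control luminescence viability.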

SMILES	IC50 (second compound 0.1 µM) [nM]	IC50 (second compound 0.316 µM) [nM]	IC50 (second compound 1 µM) [nM]	IC50 (second compound 3.16 µM) [nM]	IC50 (second compound 10 µM) [nM]	viability, T/C [3] [%]	viability, T/C [4] [%]	viability, T/C [7] [%]	viability, T/C [8] [%]	viability, T/C [11] [%]	viability, T/C [12] [%]	viability, T/C [15] [%]	viability, T/C [16] [%]	viability, T/C [19] [%]	viability, T/C [20] [%]	viability, T/C [21] [%]	viability, T/C [22] [%]	viability, T/C [25] [%]	viability, T/C [26] [%]	viability, T/C [29] [%]	other results
CC[C@@]1(O)C(=O)OCc2c1cc1n(c2=O)Cc2cc3c(CN(C)C)c(O)ccc3nc2-1 + Cc1ccccc1N=Nc1ccc(NC(=O)c2ccnn2C)c(C)c1	86.1	65.1	62	31.9	30.5	90.4	43.7	77.8	33.5	74.7	31.9	49.9	30.8	48.7	29.7	–	–	–	–	–	viability, T/C (second compound 0.1 µM, first compound 0.000316 µM): 104%; viability, T/C (second compound 0.1 µM, first compound 0.001 µM): 103%; viability, T/C [1]: 106%; viability, T/C [2]: 97.9%; viability, T/C (second compound 0.316 µM, first compound 0.000316 µM): 96.7%; viability, T/C (second compound 0.316 µM, first compound 0.001 µM): 101%; viability, T/C [5]: 94.1%; viability, T/C [6]: 97.2%; viability, T/C (second compound 1 µM, first compound 0.000316 µM): 110%; viability, T/C (second compound 1 µM, first compound 0.001 µM): 98.3%; viability, T/C [9]: 95.2%; viability, T/C [10]: 98.7%; viability, T/C (second compound 3.16 µM, first compound 0.000316 µM): 97.4%; viability, T/C (second compound 3.16 µM, first compound 0.001 µM): 96.4%; viability, T/C [13]: 89.3%; viability, T/C [14]: 87.1%; viability, T/C (second compound 10 µM, first compound 0.000316 µM): 88.1%; viability, T/C (second compound 10 µM, first compound 0.001 µM): 81.7%; viability, T/C [17]: 87.6%; viability, T/C [18]: 86.9%
COc1cc(C2c3cc4c(cc3C(OC3OC5COC(C)OC5C(O)C3O)C3COC(=O)C23)OCO4)cc(OC)c1O (stereo not given) + Cc1ccccc1N=Nc1ccc(NC(=O)c2ccnn2C)c(C)c1	468	463	505	434	368	96.5	93.2	93.7	96.6	98.8	95.7	82.9	83.9	83	82.8	60.8	26.7	61	24.6	65	viability, T/C [23]: 15.2%; viability, T/C [24]: 7.04%; viability, T/C [27]: 14.8%; viability, T/C [28]: 6.03%; viability, T/C [30]: 26.5%; viability, T/C [31]: 15.9%; viability, T/C [32]: 6.19%; viability, T/C [33]: 58.1%; viability, T/C [34]: 25.3%; viability, T/C [35]: 12.4%; viability, T/C [36]: 5.67%; viability, T/C [37]: 48.3%; viability, T/C [38]: 29.8%; viability, T/C [39]: 13.7%; viability, T/C [40]: 7.06%
COc1cccc2c1C(=O)c1c(O)c3c(c(O)c1C2=O)CC(O)(C(=O)CO)CC3OC1CC(N)C(O)C(C)O1 (stereo not given) + Cc1ccccc1N=Nc1ccc(NC(=O)c2ccnn2C)c(C)c1	< 31.6	< 31.6	< 31.6	< 31.6	< 31.6	47	32.6	32	24.1	45.6	25.8	39.9	26.4	39.6	29.7	7.99	2.76	6.58	2.77	6.31	viability, T/C [23]: 2.93%; viability, T/C [24]: 5.62%; viability, T/C [27]: 2.16%; viability, T/C [28]: 3.66%; viability, T/C [30]: 2.89%; viability, T/C [31]: 2.5%; viability, T/C [32]: 4.52%; viability, T/C [33]: 4.8%; viability, T/C [34]: 3.4%; viability, T/C [35]: 1.63%; viability, T/C [36]: 3.98%; viability, T/C [37]: 6.61%; viability, T/C [38]: 2.6%; viability, T/C [39]: 2.02%; viability, T/C [40]: 3.27%
Nc1ncn(C2CC(O)C(CO)O2)c(=O)n1 (stereo not given) + Cc1ccccc1N=Nc1ccc(NC(=O)c2ccnn2C)c(C)c1	> 1000	> 1000	> 1000	> 1000	> 1000	93.4	98.2	103	94.4	94	93	94.9	92.9	84.3	84.3	93.5	86.4	93	82.8	87.2	viability, T/C [1]: 94.4%; viability, T/C [2]: 98.1%; viability, T/C [5]: 102%; viability, T/C [6]: 104%; viability, T/C [9]: 106%; viability, T/C [10]: 98.5%; viability, T/C [30]: 89%; viability, T/C [13]: 97.4%; viability, T/C [14]: 96.3%; viability, T/C [33]: 85.7%; viability, T/C [34]: 83.5%; viability, T/C [17]: 84.7%; viability, T/C [18]: 82.1%; viability, T/C [37]: 78%; viability, T/C [38]: 76%
